From patent US20090074795A1, “Methods for addressing ocular diseases through interference with the wnt signaling pathway” (priority 2007, published 2009)

Columns and labels:
[1] = test system: primary RCEC; test: HIF-1 activation and VEGF expression induced by LiCl in primary RCEC; type: cell-based, bovine; details: 50 mM LiCl, 24 hours
Protocol: Blockade of the wnt pathway by DKK1 down-regulates VEGF and HIF-1 expression and reduces vascular leakage in the retina of diabetic rats. To activate the wnt pathway, primary RCEC were treated with 50 mM LiCl, a specific activator of the wnt pathway, in the presence or absence of 85 ng/ml DKK1, a specific inhibitor of the wnt pathway, or BSA for 24 hours. Hypoxia was used as a positive control for HIF-1 activation. The HIF-1 nuclear translocation, a key step in its activation, was measured by immunocytochemistry. Both LiCl and hypoxia increased nuclear levels of HIF-1α, indicating an increased nuclear translocation.
According to embodiments of experimental data, RCEC were exposed to normoxia (FIG. 17A), hypoxia (1% O2) (FIG. 17B), 50 mM LiCl with BSA (FIG. 17C), or 50 mM LiCl plus 85 ng/ml DKK1 (FIG. 17D) for 24 hours. The nuclear translocation of HIF-1α was determined by immunocytochemistry with an antibody against HIF-1α. […] In FIG. 17E, the total levels of VEGF and HIF-1α were determined by western blot analysis with an antibody against HIF-1α or VEGF.

[2] = test system: bovine retinal capillary endothelial cells (BRCEC); test: β-catenin activation by high glucose in BRCEC; type: cell-based; details: 30 mM glucose with 10 μM aminoguanidine, 24 h
Protocol: To elucidate the mechanism for of the wnt pathway activation induced by high glucose, primary bovine retinal capillary endothelial cells (BRCEC) were treated with low glucose (5 mM glucose and 20 mM mannitol), high glucose (30 mM glucose), and high glucose together with a known anti-oxidant (30 mM glucose with 10 μM aminoguanidine) for 24 h. The nuclear levels of β-catenin were examined by immunocytochemistry using the antibody for β-catenin. […] The nuclear translocation of β-catenin induced by high glucose was blocked by aminoguanidine.
According to embodiments of experimental data, cultured BRCEC were exposed to 5 mM glucose plus 20 mM mannitol as control (FIG. 12A), 30 mM glucose (FIG. 12B), and 30 mM glucose plus 10 μM aminoguanidine (AG) (FIG. 12C) for 24 hours. […] In FIG. 12D, protein levels of β-catenin were determined using western blot analysis, and normalized by β-actin levels. Each lane of FIG. 12D represents an individual culture dish.

SMILES | nuclear levels of HIF-1α ([1]; immunocytochemistry) | expression of HIF-1α ([1]; western blot) | expression of VEGF ([1]; western blot) | nuclear translocation of β-catenin induced by high glucose ([2]; immunocytochemistry) | total levels of β-catenin increased by high glucose ([2]; western blot)
[Cl-].[Li+] [LiCl, reference compound] | increased | up-regulated | up-regulated | – | –
N=C(N)NN [aminoguanidine] | – | – | – | blocked | blocked
